Patent US20250154172A1, “PRMT5 INHIBITORS AND USES THEREOF” (Gilead Sciences, Inc., priority 2023, published 2025)

Assay: Hepatocyte stability assay
Format: in vitro ADME
Details: Rat hepatocytes; 1 μM substrate
Method: BioreclamationIVT (Baltimore, MD) provided the cryopreserved hepatocytes, hepatocyte thawing (HT) medium, and Krebs-Henseleit buffer (KHB) medium. The stock solution concentration was 1 M in DMSO and was then diluted further in acetonitrile/water (1:1 v/v). All other chemicals were purchased from Sigma-Aldrich (St. Louis, MO) or Thermo Fisher Scientific (Waltham, MA).
The quench solution used to stop reactions in the hepatocyte incubations was comprised of 100% (v/v) acetonitrile. Internal Standard/Quench (IS/Q) solution used to stop reactions with the positive control also contained 200 nM Labetalol.
Metabolic Stability in Cryopreserved Hepatocytes: Test compounds, or the positive control metabolic substrate, was incubated in suspensions of cryopreserved hepatocytes at a final concentration of 1 μM. Vials containing cryopreserved hepatocytes were removed from liquid nitrogen and immediately immersed in a 37° C. water bath. The vials were swirled gently until the contents had thawed. […] The viabilities of all cell preparations were >85%, assessed by Trypan blue dye exclusion.
For incubations, aliquots of hepatocyte suspension (250 μL containing a cell concentration of 2×10^6 cells/mL) were added to 250 μL of 2 μM substrate (test compound or positive control) in supplemented KHB in duplicate wells in a 24-well plate. […] Samples were injected and analyzed with methods described below. […]

Predicted Hepatocyte CL [mL/min/kg] | SMILES
42.2 | Nc1nc2cnc(C(=O)N3CCC[C@@H]4Oc5cc(C(F)(F)F)cc(F)c5[C@@H]43)cc2c2c1COC2 [Example Ca-47, (4-amino-1,3-dihydrofuro[3,4-c][1,7]naphthyridin-8-yl)((4aS,9bS)-9-fluoro-7-(trifluoromethyl)-3,4,4a,9b-tetrahydrobenzofuro[3,2-b]pyridin-1(2H)-yl)methanone]
41 | Nc1nc2cnc(C(=O)N3CCOC[C@@H]3c3ccc(C(F)(F)F)cc3)cc2c2c1COC2 [AMG193, reference compound]
